Like-named read-outs stand apart in the source and are kept apart here.
Legend:
Experiment in all cases: Test B pre-/postemergence plant response
Type in all cases: in vivo
[1] = tested on: velvetleaf (Abutilon theophrasti); details: Preemergence; 8 g ai/ha; scale 0 to 100
Outline: (§1)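 Seeds were sown and sprayed preemergence, while plants at 2 to 18 cm (1- to 4-leaf stage) got postemergence sprays. Compounds were formulated in a non-phytotoxic solvent mixture with surfactant. After 13 to 15 days in a greenhouse, injury was rated visually against untreated controls, 0 (no effect) to 100 (complete control).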

[2] = tested on: soybean (Glycine max); details: for Soybean plant response rating: 8 g ai/ha; for plant injury at 16 g/ha: 16 g ai/ha; for plant injury at 62 g/ha: 62 g ai/ha
Outline: as §1

[3] = tested on: kochia (Kochia scoparia); details: for Kochia plant response rating: 8 g ai/ha; for Plant response rating, Kochia: Postemergence
Outline: as §1

[4] = tested on: Italian ryegrass (Lolium multiflorum); details: for Ryegrass, Italian plant response rating: 8 g ai/ha; for pest or weed control at 16 g/ha / pest or weed control at 31 g/ha / pest or weed control at 62 g/ha: Lolium multiflorum, read-out: Plant response rating, Ryegrass, Italian; for pest or weed control at 16 g/ha: 16 g ai/ha; for pest or weed control at 31 g/ha: 31 g ai/ha; for pest or weed control at 62 g/ha: 62 g ai/ha
Outline: as §1

[5] = tested on: corn (Zea mays); details: for Corn plant response rating: 8 g ai/ha; for Corn plant response rating (crop injury, 0 = no effect, 100 = complete kill) at 16 g/ha / Corn plant response rating (crop injury, 0 = no effect, 100 = complete kill) at 31 g/ha / Corn plant response rating (crop injury, 0 = no effect, 100 = complete kill) at 62 g/ha: Zea mays; for Corn plant response rating (crop injury, 0 = no effect, 100 = complete kill) at 16 g/ha: 16 g ai/ha; for Corn plant response rating (crop injury, 0 = no effect, 100 = complete kill) at 31 g/ha: 31 g ai/ha; for Corn plant response rating (crop injury, 0 = no effect, 100 = complete kill) at 62 g/ha: 62 g ai/ha
Outline: as §1

[6] = tested on: downy bromegrass (Bromus tectorum); details: for Bromegrass, Downy plant response rating: 8 g ai/ha; for pest or weed control at 16 g/ha / pest or weed control at 31 g/ha / pest or weed control at 62 g/ha: Bromus tectorum, read-out: Plant response rating, Bromegrass, Downy; for pest or weed control at 16 g/ha: 16 g ai/ha; for pest or weed control at 31 g/ha: 31 g ai/ha; for pest or weed control at 62 g/ha: 62 g ai/ha
Outline: as §1

[7] = tested on: pigweed (Amaranthus retroflexus); details: for Pigweed plant response rating: 8 g ai/ha; for pest or weed control at 16 g/ha / pest or weed control at 31 g/ha / pest or weed control at 62 g/ha: Amaranthus retroflexus, read-out: Plant response rating, Pigweed; for pest or weed control at 16 g/ha: 16 g ai/ha; for pest or weed control at 31 g/ha: 31 g ai/ha; for pest or weed control at 62 g/ha: 62 g ai/ha
Outline: as §1

[8] = tested on: eastern black (E.B.) nightshade (Solanum ptycanthum); details: Preemergence
Outline: as §1

[9] = post-emergence, Postemergence, scale 0 to 100
[10] = post-emergence, Postemergence, scale 0 to 100, 0 no effect, 100 complete control
[11] = pre-emergence, Preemergence, scale 0 to 100 (0 no effect, 100 complete control)
[12] = pre-emergence, Preemergence, 0 to 100 scale, 0 no effect, 100 complete control
[13] = pre-emergence, Preemergence, scale 0 to 100

CCc1c(C)c(-c2ccc(Cl)cc2)nn1-c1c(O)cnn(C)c1=O [Compound 26, 4-[3-(4-chlorophenyl)-5-ethyl-4-methyl-1H-pyrazol-1-yl]-5-hydroxy-2-methyl-3(2H)-pyridazinone]
Velvetleaf plant response rating [1]: 0 | Soybean plant response rating ([2]; postemergence, 0-100 scale): 0 | plant injury at 16 g/ha ([2]; Glycine max, post-emergence, Postemergence, scale 0 to 100, read-out: Plant response rating, Soybean): 0% | plant injury at 62 g/ha ([2]; Glycine max, post-emergence, Postemergence, scale 0 to 100, 0 no effect, 100 complete control, read-out: Plant response rating, Soybean): 0% | plant injury at 16 g/ha ([2]; Glycine max, pre-emergence, Preemergence, scale 0 to 100 (0 no effect, 100 complete control), read-out: Plant response rating, Soybean): 0% | plant injury at 31 g/ha ([2]; Glycine max, pre-emergence, Preemergence, 31 g ai/ha, 0 to 100 scale, 0 no effect, 100 complete control, read-out: Plant response rating, Soybean): 0% | plant injury at 62 g/ha ([2]; Glycine max, pre-emergence, Preemergence, scale 0 to 100, read-out: Plant response rating, Soybean): 0% | Soybean plant response rating ([2]; Preemergence, scale 0 to 100): 0 | Kochia plant response rating ([3]; postemergence, 0-100 scale): 0 | Plant response rating, Kochia ([3]; 16 g ai/ha, scale 0 to 100): 0 | Plant response rating, Kochia ([3]; 31 g ai/ha, scale 0 to 100, 0 no effect, 100 complete control): 0 | Plant response rating, Kochia ([3]; 62 g ai/ha, scale 0 to 100, 0 no effect, 100 complete control): 0 | Kochia plant response rating ([3]; Preemergence, scale 0 to 100): 0 | Ryegrass, Italian plant response rating ([4]; postemergence, 0-100 scale): 70 | pest or weed control at 16 g/ha [4, 9]: 85% | pest or weed control at 31 g/ha [4, 10]: 85% | pest or weed control at 62 g/ha [4, 10]: 100% | pest or weed control at 16 g/ha [4, 11]: 90% | pest or weed control at 31 g/ha [4, 12]: 100% | pest or weed control at 62 g/ha [4, 13]: 100% | Ryegrass, Italian plant response rating ([4]; Preemergence, scale 0 to 100): 50 | Corn plant response rating ([5]; postemergence, 0-100 scale): 0 | Corn plant response rating ([5]; Preemergence, scale 0 to 100): 15 | Corn plant response rating (crop injury, 0 = no effect, 100 = complete kill) at 16 g/ha [5, 9]: 0% | Corn plant response rating (crop injury, 0 = no effect, 100 = complete kill) at 31 g/ha [5, 10]: 100% | Corn plant response rating (crop injury, 0 = no effect, 100 = complete kill) at 62 g/ha [5, 10]: 100% | Corn plant response rating (crop injury, 0 = no effect, 100 = complete kill) at 16 g/ha [5, 11]: 30% | Corn plant response rating (crop injury, 0 = no effect, 100 = complete kill) at 31 g/ha [5, 12]: 70% | Corn plant response rating (crop injury, 0 = no effect, 100 = complete kill) at 62 g/ha [5, 13]: 98% | Bromegrass, Downy plant response rating ([6]; postemergence, 0-100 scale): 0 | pest or weed control at 16 g/ha [6, 9]: 10% | pest or weed control at 31 g/ha [6, 10]: 30% | pest or weed control at 62 g/ha [6, 10]: 60% | pest or weed control at 16 g/ha [6, 11]: 0% | pest or weed control at 31 g/ha [6, 12]: 10% | pest or weed control at 62 g/ha [6, 13]: 65% | Bromegrass, Downy plant response rating ([6]; Preemergence, scale 0 to 100): 0 | Pigweed plant response rating ([7]; postemergence, 0-100 scale): 0 | pest or weed control at 16 g/ha [7, 9]: 0% | pest or weed control at 31 g/ha [7, 10]: 0% | pest or weed control at 62 g/ha [7, 10]: 0% | pest or weed control at 16 g/ha [7, 11]: 0% | pest or weed control at 31 g/ha [7, 12]: 0% | pest or weed control at 62 g/ha [7, 13]: 0% | Pigweed plant response rating ([7]; Preemergence, scale 0 to 100): 0 | Nightshade, E. B. plant response rating ([8]; 8 g ai/ha, scale 0 to 100): 0 | pest or weed control at 16 g/ha ([8]; Solanum, pre-emergence, 16 g ai/ha, scale 0 to 100 (0 no effect, 100 complete control), read-out: Plant response rating, Nightshade, E. B.): 0% | pest or weed control at 31 g/ha ([8]; Solanum, pre-emergence, 31 g ai/ha, 0 to 100 scale, 0 no effect, 100 complete control, read-out: Plant response rating, Nightshade, E. B.): 0% | pest or weed control at 62 g/ha ([8]; Solanum, pre-emergence, 62 g ai/ha, scale 0 to 100, read-out: Plant response rating, Nightshade, E. B.): 0%
